US20050222200A1, “AMIDE DERIVATIVES AS ION CHANNEL LIGANDS AND PHARMACEUTICAL COMPOSITIONS AND METHODS OF USING THE SAME” (Renovis, Inc., priority 2003, published 2005)

Legend:
VR1 [1] = target: T1, VR1 (Rattus norvegicus, UniProt O35433); experiment: Whole-cell patch clamp electrophysiology: inhibition of capsaicin induced current in DRG neurons; type: cell-based, rats; design: Dorsal root ganglion (DRG) neurons were recovered from either neonatal or adult rats; endogenous in cells; host or cells: primary rat dorsal root ganglion neurons
T1 sequence (O35433 whole entry): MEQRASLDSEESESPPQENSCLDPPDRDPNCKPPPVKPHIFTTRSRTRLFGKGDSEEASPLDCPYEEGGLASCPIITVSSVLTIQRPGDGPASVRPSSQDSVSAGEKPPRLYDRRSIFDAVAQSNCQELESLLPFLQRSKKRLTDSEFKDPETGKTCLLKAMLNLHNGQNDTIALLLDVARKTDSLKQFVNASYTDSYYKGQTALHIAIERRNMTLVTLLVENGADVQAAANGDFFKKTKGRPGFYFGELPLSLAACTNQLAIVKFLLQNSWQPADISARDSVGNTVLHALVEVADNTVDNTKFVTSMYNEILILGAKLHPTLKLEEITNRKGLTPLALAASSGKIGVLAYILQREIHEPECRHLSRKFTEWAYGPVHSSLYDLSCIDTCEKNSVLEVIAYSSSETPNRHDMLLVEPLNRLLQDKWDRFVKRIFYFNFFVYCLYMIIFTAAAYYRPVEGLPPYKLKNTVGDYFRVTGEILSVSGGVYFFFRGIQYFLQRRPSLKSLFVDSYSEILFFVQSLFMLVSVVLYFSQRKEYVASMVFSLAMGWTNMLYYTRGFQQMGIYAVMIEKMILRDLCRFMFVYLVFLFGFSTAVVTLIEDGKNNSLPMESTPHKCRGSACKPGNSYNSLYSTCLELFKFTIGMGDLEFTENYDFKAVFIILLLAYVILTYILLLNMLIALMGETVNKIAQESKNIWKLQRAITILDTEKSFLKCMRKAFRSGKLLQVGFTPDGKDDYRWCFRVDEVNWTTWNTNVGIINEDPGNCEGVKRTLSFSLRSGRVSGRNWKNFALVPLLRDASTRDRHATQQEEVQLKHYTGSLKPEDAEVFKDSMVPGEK
Text: Whole-cell patch clamp electrophysiology
Dorsal root ganglion (DRG) neurons were recovered from either neonatal or adult rats and plated onto poly-D-lysine coated glass coverslips. The plated neurons were transferred into a chamber to allow drug solutions to be added to the cells using a computer-controlled solenoid-valve based perfusion system. The cells were imaged using standard DIC optics. Cells were patched using finely-pulled glass electrodes. Voltage-clamp electrophysiology experiments were carried out using an Axon Instruments Multiclamp amplified controlled by pCLAMP8 software.
The cells were placed into a whole-cell voltage clamp and held at a voltage of –80mV while monitoring the membrane current in gap-free recording mode.
500nM capsaicin was added for 30 seconds as a control. Test compounds at various concentrations were added to the cells for 1 minute prior to a 30 second capsaicin application. Differences between control experiments and drug positive capsaicin experiments were used to determine the efficacy of each test compound. All compounds that inhibited capsaicin induced current greater than 50% were considered positives.

VR1 [2] = target: T1, VR1; experiment: Calcium imaging assay: inhibition of capsaicin induced calcium influx in DRG neurons (Fura2, microscope); type: cell-based; design: endogenous in cells; host or cells: DRG neurons
In short: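 Fura2-loaded rat DRG neurons imaged by microscope; test compound perfused 1 min, then capsaicin (250 nM) applied with compound for 20–60 s. Calcium influx followed as 340/380 nm fluorescence ratio; inhibition above 75% scored positive.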

Row | Compound | inhibition at 0.1 µM (VR1 [1]; DRG neuron, concentration 100 nM, treatment time 20 seconds, 500nM capsaicin, held at -80mV, DRG neurons) [%] | calcium influx in neurons, capsaicin in presence of compound vs capsaicin alone (Figure 2) (VR1 [1]; same neurons, capsaicin alone as comparison) | inhibition at 0.3 µM (VR1 [2]; DRG neuron, concentration 300 nM, treatment time 20 sec, capsaicin 250 nM, DRG neurons) [%] | fluorescence reflecting calcium ion influx when administered with capsaicin (Figure 1) (VR1 [2]; administered with capsaicin) | inhibition of calcium ion influx induced by capsaicin stimulation (VR1 [2]; capsaicin stimulation, class symbols per legend)
1 | COc1cc(NC(=O)c2ccc(/C=C/C(C)C)cc2)cc(C(F)(F)F)c1 [Compound 155] | 50 | less calcium influx | < 75 | reduced | –
2 | CC(C)(C)C#Cc1ccc(C(=O)Nc2ccc3c(c2)OCO3)cn1 [Compound 438] | – | – | – | – | ++++ (compound exhibited 75% or greater inhibition of calcium ion influx induced by capsaicin stimulation)
